Results reported in patent US10155021B2, “Antimicrobial 4-oxoquinolizines” (Emergent Product Development Gaithersburg Inc., priority 2011, dated 2018).
In brackets after ≈: the same amount, converted by molar mass. Where two headings read alike, the source gives them in different places. One block for each molecule: values may come before it.

Tests used:
[1] = system: A. baumannii A401; experiment: Preliminary MBC without and with sub-inhibitory polymyxin B (Example 4); assay type: cell-based, Acinetobacter baumannii; details: Acinetobacter baumannii, A401, A baumannii A 401; without polymyxin B; preliminary MBC; 1st experiment; read-out: MBC without PB
[2] = system: A. baumannii A472; experiment: as above; assay type: cell-based, Acinetobacter baumannii; details: Acinetobacter baumannii, A472, A. baumannii A472, without polymyxin B, read-out: MBC without PB
[3] = system: A. baumannii A329; experiment: MIC without and with sub-inhibitory polymyxin B (Example 4); assay type: cell-based, Acinetobacter baumannii; details: Acinetobacter baumannii
[4] = system: A. baumannii A472; experiment: MIC determination for Acinetobacter strains (Example 3); assay type: cell-based; details: LEV R, CIP R, MRP I, IMP I, AMK R, TET R
[5] = system: A. baumannii A387; experiment: MIC without and with sub-inhibitory polymyxin B (Example 4); assay type: cell-based, Acinetobacter baumannii; details: Acinetobacter baumannii, A387, A. baumannii A387, without polymyxin B, read-out: MIC without PB
[6] = system: A. baumannii A390; experiment: MIC determination for Acinetobacter strains (Example 3); assay type: cell-based; details: LEV R, CIP R, MRP R, IPM I, AMK R, TET I
[7] = system: A. baumannii A489; experiment: MIC without and with sub-inhibitory polymyxin B (Example 4); assay type: cell-based, Acinetobacter baumannii; details: Acinetobacter baumannii, A489, A. baumannii A489, without polymyxin B
[8] = system: A. baumannii A473; experiment: MIC determination for Acinetobacter strains (Example 3); assay type: cell-based; details: LEV R, CIP R, MRP R, IMP R, AMK R, TET R
[9] = system: A. baumannii A472; experiment: MIC without and with sub-inhibitory polymyxin B (Example 4); assay type: cell-based, Acinetobacter baumannii; details: for MIC: Acinetobacter baumannii, A472, A. baumannii A472, without polymyxin B, read-out: MIC without PB
[10] = system: Acinetobacter sp. (H064200250); experiment: Preliminary MBC without and with sub-inhibitory polymyxin B (Example 4); assay type: cell-based; details: Acinetobacter, without polymyxin B, preliminary MBC, read-out: MBC without PB
Experimental: The plates were incubated for 18-20 hours at 37° C. The MBC was read as the lowest concentration at which colony growth was ca. 90% less than the positive control (i.e. usually where single colonies or no colonies were observed).

[11] = system: A. baumannii A473; experiment: as above; assay type: cell-based, Acinetobacter baumannii; details: Acinetobacter baumannii, A473, A. baumannii A473, without polymyxin B, read-out: MBC without PB
[12] = system: A. baumannii ATCC 19606; experiment: MIC without and with sub-inhibitory polymyxin B (Example 4); assay type: cell-based, Acinetobacter baumannii; details: Acinetobacter baumannii, ATCC19606, A. baumannii ATCC 19606; without polymyxin B; 2nd experiment; second reading marked *, mark not explained; read-out: MIC without PB, value in parentheses marked *
[13] = system: A. baumannii A473; experiment: as above; assay type: cell-based, Acinetobacter baumannii; details: Acinetobacter baumannii, A473, A. baumannii A473, without polymyxin B
[14] = system: A. baumannii A401; experiment: as above; assay type: cell-based, Acinetobacter baumannii; details: Acinetobacter baumannii, A401, A baumannii A 401, without polymyxin B, read-out: MIC without PB
[15] = system: resistant strains of A. baumannii and one strain of Acinetobacter sp.; experiment: MIC without and with sub-inhibitory polymyxin B, whole panel / MIC ranges (Example 4; also strains not listed separately); assay type: cell-based; details: Acinetobacter baumannii
[16] = system: Acinetobacter sp. (H064200250); experiment: MIC without and with sub-inhibitory polymyxin B (Example 4); assay type: cell-based; details: Acinetobacter, without polymyxin B, read-out: MIC without PB
[17] = system: A. baumannii A489; experiment: Preliminary MBC without and with sub-inhibitory polymyxin B (Example 4); assay type: cell-based, Acinetobacter baumannii; details: Acinetobacter baumannii, A489, A. baumannii A489, without polymyxin B, read-out: MBC without PB
[18] = system: A. baumannii A489; experiment: MIC determination for Acinetobacter strains (Example 3); assay type: cell-based; details: LEV R, CIP R, MRP R, IMP R, AMK R, TET R
[19] = system: A. baumannii A387; experiment: Preliminary MBC without and with sub-inhibitory polymyxin B (Example 4); assay type: cell-based, Acinetobacter baumannii; details: Acinetobacter baumannii, A387, A. baumannii A387, without polymyxin B, read-out: MBC without PB
[20] = system: 11 strains of A. baumannii and one strain of Acinetobacter sp.; experiment: Preliminary MBC without and with sub-inhibitory polymyxin B, whole panel (Example 4; also strains not listed separately); assay type: cell-based; details: Acinetobacter baumannii, NCTC13301, A. baumannii NCTC 13301, without polymyxin B, 2nd experiment, read-out: MBC without PB
[21] = system: Acinetobacter spp. H064200250; experiment: MIC determination for Acinetobacter strains (Example 3); assay type: cell-based, Acinetobacter sp.; details: LEV R, CIP R, MRP R, IMP I
[22] = system: A. baumannii A 401; experiment: as above; assay type: cell-based; details: A401, LEV R, CIP R, AMK R, TET R
[23] = system: A. baumannii A390; experiment: MIC without and with sub-inhibitory polymyxin B (Example 4); assay type: cell-based, Acinetobacter baumannii; details: Acinetobacter baumannii, A390, A. baumannii A390, without polymyxin B, read-out: MIC without PB
[24] = system: A. baumannii J2; experiment: Preliminary MBC without and with sub-inhibitory polymyxin B (Example 4); assay type: cell-based, Acinetobacter baumannii; details: Acinetobacter baumannii, J2, A. baumannii J2; without polymyxin B; preliminary MBC; 1st experiment; read-out: MBC without PB
[25] = system: A. baumannii ATCC 19606; experiment: as above; assay type: cell-based, Acinetobacter baumannii; details: Acinetobacter baumannii, ATCC19606, A. baumannii ATCC 19606; without polymyxin B; preliminary MBC; 1st experiment; read-out: MBC without PB
[26] = system: A. baumannii J2; experiment: MIC without and with sub-inhibitory polymyxin B (Example 4); assay type: cell-based, Acinetobacter baumannii; details: Acinetobacter baumannii, J2, A. baumannii J2; without polymyxin B; 1st experiment; read-out: MIC without PB
[27] = system: A. baumannii A329; experiment: Preliminary MBC without and with sub-inhibitory polymyxin B (Example 4); assay type: cell-based, Acinetobacter baumannii; details: Acinetobacter baumannii, A329, A. baumannii A329, without polymyxin B, 1st experiment, read-out: MBC without PB
[28] = 1st experiment, read-out: MIC without PB
[29] = 2nd experiment, MIC read with alamar blue, read-out: MIC without PB, read with alamar blue
[30] = 2nd experiment, visual reading, read-out: MIC without PB
[31] = Acinetobacter spp. H064200250, 1st experiment
[32] = read-out: MIC range without PB 01-10-2008 n = 8, without polymyxin B, 1st experiment, 8 strains

MIC ([3]; A329, read-out: MIC +0.06 μg/ml PB, read with alamar blue, A. baumannii A329, +0.06 μg/ml polymyxin B, 2nd experiment, MIC read with alamar blue): 64 µg/mL
MIC [4]: 8 µg/mL (≈ 20.9 µM)
MIC ([5]; 2nd experiment, visual reading): 8 µg/mL (≈ 20.9 µM)
MIC [6]: 32 µg/mL (≈ 83.4 µM)
MIC [7, 28]: 16 µg/mL (≈ 41.7 µM)
MIC [7, 29]: 32 µg/mL (≈ 83.4 µM)
MIC [7, 30]: 16 µg/mL (≈ 41.7 µM)
MIC [8]: 16 µg/mL (≈ 41.7 µM)
MIC ratio without/with polymyxin B ([9]; A. baumannii A472, ratio MIC without PB to MIC + PB, PB […], 2nd experiment): ≥ 64 µg/mL
MIC ([9]; 1st experiment): 8 µg/mL (≈ 20.9 µM)
MIC ([9]; 2nd experiment, visual reading): 8 µg/mL (≈ 20.9 µM)
MIC [12]: 64 µg/mL (≈ 167 µM)
MIC [13, 28]: 16 µg/mL (≈ 41.7 µM)
MIC [13, 29]: 32 µg/mL (≈ 83.4 µM)
MIC [13, 30]: 16 µg/mL (≈ 41.7 µM)
MIC ([14]; 1st experiment): 32 µg/mL (≈ 83.4 µM)
MIC ([14]; 2nd experiment, visual reading): 16 µg/mL (≈ 41.7 µM)
MIC ([15]; NCTC13301, A. baumannii NCTC 13301, without polymyxin B, 1st experiment, read-out: MIC without PB): 32 µg/mL (≈ 83.4 µM)
MIC ([15]; NCTC13301, A. baumannii NCTC 13301, without polymyxin B, 2nd experiment, visual reading, read-out: MIC without PB): 64 µg/mL (≈ 167 µM)
MIC [15, 32]: 1 to 32 µg/mL (≈ 2.61 to 83.4 µM)
MIC ([16]; Acinetobacter spp. H064200250 (OXA51), 2nd experiment, visual reading): 16 µg/mL (≈ 41.7 µM)
MIC [16, 31]: 32 µg/mL (≈ 83.4 µM)
MIC [18]: 16 µg/mL (≈ 41.7 µM)
MIC [21]: 32 µg/mL (≈ 83.4 µM)
MIC [22]: 32 µg/mL (≈ 83.4 µM)
MIC ([23]; 1st experiment): 32 µg/mL (≈ 83.4 µM)
MIC ([23]; 2nd experiment, visual reading): 32 µg/mL (≈ 83.4 µM)
Structure (SMILES): C[C@@H](O)[C@H]1C(=O)N2C(C(=O)O)=C(S[C@@H]3CN[C@H](C(=O)N(C)C)C3)[C@H](C)[C@H]12 [Meropenem, reference compound]
MBC [1]: 16 µg/mL (≈ 41.7 µM)
MBC ([2]; 1st experiment): 8 µg/mL (≈ 20.9 µM)
MBC ([2]; 2nd experiment): 8 µg/mL (≈ 20.9 µM)
MBC ([10]; Acinetobacter spp. H064200250 (OXA51), 2nd experiment): 16 µg/mL (≈ 41.7 µM)
MBC [10, 31]: 16 µg/mL (≈ 41.7 µM)
MBC ([11]; 1st experiment): 64 µg/mL (≈ 167 µM)
MBC ([11]; 2nd experiment): 16 µg/mL (≈ 41.7 µM)
MBC ([17]; 1st experiment): 8 µg/mL (≈ 20.9 µM)
MBC ([17]; 2nd experiment): 16 µg/mL (≈ 41.7 µM)
MBC ([19]; 2nd experiment): 8 µg/mL (≈ 20.9 µM)
MBC [20]: 64 µg/mL (≈ 167 µM)

MIC ([3]; A329, A. baumannii A329, without polymyxin B, 1st experiment, read-out: MIC without PB): 8 µg/mL (≈ 21.6 µM)
MIC ([5]; 1st experiment): 1 µg/mL (≈ 2.7 µM)
MIC [7, 28]: 8 µg/mL (≈ 21.6 µM)
MIC ([9]; 1st experiment): 4 µg/mL (≈ 10.8 µM)
MIC [13, 28]: 4 µg/mL (≈ 10.8 µM)
MIC ([14]; 1st experiment): 4 µg/mL (≈ 10.8 µM)
MIC [15, 32]: 1 to 16 µg/mL (≈ 2.7 to 43.2 µM)
MIC [16, 31]: 8 µg/mL (≈ 21.6 µM)
MIC [26]: 4 µg/mL (≈ 10.8 µM)
Structure (SMILES): Cc1c(-c2ccc(N)c(F)c2)c(F)cn2c(=O)c(C(=O)O)cc(C3CC3)c12 [Compound 17, 8-(3-fluoro-4-amino-phenyl)-1-cyclopropyl-7-fluoro-9-methyl-4-oxo-quinolizine-3-carboxylic acid]
MBC [1]: 8 µg/mL (≈ 21.6 µM)
MBC ([2]; 1st experiment): 4 µg/mL (≈ 10.8 µM)
MBC [24]: 4 µg/mL (≈ 10.8 µM)
MBC [10, 31]: 8 µg/mL (≈ 21.6 µM)
MBC ([11]; 1st experiment): 4 µg/mL (≈ 10.8 µM)
MBC [25]: 1 µg/mL (≈ 2.7 µM)
MBC ([17]; 1st experiment): 4 µg/mL (≈ 10.8 µM)
MBC ([19]; 1st experiment): 2 µg/mL (≈ 5.4 µM)
MBC [27]: 8 µg/mL (≈ 21.6 µM)
